In PubChem BioAssay AID179 (DTP/NCI, 2004):
Calls of active or inactive are those of the source.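 The calls were made as follows: active = compounds giving half or more protection of infected cells from virus-caused growth loss, again on retest; inactive = the rest.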

Test system: CEM cells HIV-1 protection, formazan growth assay
Experiment: NCI AIDS Antiviral Assay
Settings: for IC50: measured here: growth of uninfected CEM cells
Method in brief: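 Steps: treat uninfected and HIV-1-infected human CEM cells at five drug levels; quantify growth by soluble formazan; retest any compound reaching 50% protection; classify actives from the retest.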

Structure (SMILES)	EC50 [µM]	IC50 [µM]	outcome
[N-]=[N+]=NC12CC3C4CC5CC3C(C1)C(C5)C4C2	> 282	162	
Cc1cn(C2CC(N=[N+]=[N-])C(COP(=O)(OCC(=O)c3ccccc3)OCC(=O)c3ccccc3)O2)c(=O)[nH]c1=O (stereo unspecified)	0.00741	2	
O=S(=O)(Nc1nc2ccccc2nc1Nc1cccc2ccccc12)c1ccccc1	> 200	15.8	
Cc1ccc(S(=O)(=O)Nc2nc3ccccc3c(=O)n2C2CCCCC2)cc1	> 200	> 200	
Cc1cc(S(=O)(=O)Nc2nc(N)nc(N(C)C)n2)c(SCC(=O)O)cc1Cl	> 200	> 200	
C=C(CCCCCOCOCCOC)[Si](C)(C)C	> 26.3	> 26.3	
CCCCCCCCOc1ccc(C(=O)c2ccccc2)c(O)c1	> 200	95.5	
O=C1c2cc3c(cc2CC12Cc1ccc4c(c1C2=O)CCCC4)CCCC3 (stereo unspecified)	> 200	> 200	
COC1=C(C(=O)OC(C)(C)C)C23CCCCCCCCCCC2(C(C(=O)OC(C)(C)C)=C(OC)C3C(=O)OC(C)(C)C)C1C(=O)OC(C)(C)C (stereo unspecified)	> 25.1	23.4	
NS(=O)(=O)c1ccc(Nc2c3ccccc3nc3c(C(=O)NCCCN(CCO)CCO)cccc23)cc1	> 200	9.33	
COC12C=CC(CC1)c1c2c(O)c2nc(C)c(C)nc2c1O (stereo unspecified)	> 200	3.16	
N#CC(C#N)=Cc1c[nH]c2ccccc12			inactive
N#C/C(=C\c1cc(Cl)cc(Cl)c1O)c1nc2ccccc2[nH]1	> 200	30.9	
Cc1cccc(CC(Cc2c(C)cccc2C(=O)O)C(=O)O)c1 (stereo unspecified)	> 200	> 200	
C/C=C/C=Nc1c(C#N)c2n(c1C(=O)Nc1ccccc1)CCCC2	> 50.1	> 50.1	
CC12Cc3ccccc3CC1OCN1CN2COC2Cc3ccccc3CC21C (stereo unspecified)	> 13.2	> 13.2	
COC(=O)c1cc(C(=O)OC)c(CC(=O)C(=O)Nc2c(C(C)C)cccc2C(C)C)nc1CC(=O)C(=O)Nc1c(C(C)C)cccc1C(C)C	> 200	> 200	
Cc1cc(C)c(NS(=O)c2cccc(C(F)(F)F)c2)c(C)c1 (stereo unspecified)	> 110	> 110	
CC(C(C(=O)O)S(=O)(=O)O)C(C(=O)O)S(=O)(=O)O (stereo unspecified)	> 100	20.4	
O=C(O)c1cccc2cccc(C(=O)O)c12.[Hg]			inactive
CN(C)CC1CCCC(CN(C)C)C1=NOC(=O)c1ccccc1 (stereo unspecified)	> 200	174	
CN(C)CCNC(=O)c1ccc(Cl)c2c(Nc3ccc(S(N)(=O)=O)cc3)c3ccccc3nc12			inactive
COC(=O)c1csnn1	> 1740	> 1740	
CCCCCCCCCCCCNS(=O)(=O)c1ccc(-c2c3nc(c(-c4ccc(S(=O)(=O)NCCCCCCCCCCCC)cc4)c4ccc([nH]4)c(-c4ccc(S(=O)(=O)NCCCCCCCCCCCC)cc4)c4nc(c(-c5ccc(S(=O)(=O)NCCCCCCCCCCCC)cc5)c5ccc2[nH]5)C=C4)C=C3)cc1	> 100	> 100	
O=[N+]([O-])c1cccc(C2CC(c3ccccc3)=Nc3ccccc3S2)c1 (stereo unspecified)	> 35.5	2.34	
CC(C)(C)c1cc(Nc2ccc([N+](=O)[O-])cc2[N+](=O)[O-])cc(C(C)(C)C)c1O	> 13.5	> 13.5	

Structure (SMILES)	EC50 [µM]	IC50 [µM]	outcome
CN/N=C(\C(=O)Nc1ccc([N+](=O)[O-])cc1[N+](=O)[O-])C1NC(=O)NC1=O (stereo unspecified)	> 66.1	> 66.1	
O=S(=O)(Nc1nnc2ccc3ccccc3n12)c1ccc(F)cc1S	> 200	110	
O=C(CC(NC(=O)C(F)(F)F)C(=O)O)OCc1ccccc1 (stereo unspecified)	> 200	> 200	
Cn1c([C@H](C#N)c2ncccc2[N+](=O)[O-])nc2ccccc21	> 200	110	
Cc1nn(-c2ccc(S(=O)(=O)[O-])cc2)c([O-])c1N=[N+](C)c1ccc(-c2ccc(N=Nc3ccc4c(S(=O)(=O)[O-])cc(S(=O)(=O)[O-])c(N)c4c3[O-])c([O-])c2)cc1[O-].[Cu+2].[Cu+2].[Na+]	6.76	120	
Cn1nc(-c2ccccc2)c(C(=O)/C=C/c2ccc(F)cc2)c(N2CCCCC2)c1=O	> 18.6	> 18.6	
COc1cc(C(=O)NCCS(=O)(=O)O)cc(OC)c1OC	> 724	631	
O=C1CCCNn2c(nc3ncccc3c2=O)N1	> 200	158	
N=c1ccc2nc(N)nn(O)c-2c1	> 200	> 200	
O=C(NNc1ccnc2cc(Cl)ccc12)/C(=C/c1ccc2c(c1)OCO2)NC(=O)c1ccccc1	> 100	8.51	
COc1cccc(NC(=O)CC(=O)N2N=C(N(CCC#N)c3ccccc3C)CC2c2ccccc2)c1 (stereo unspecified)	> 501	> 501	
Nc1ccc2nc3n(c2c1)C(c1c(F)cccc1F)SC3 (stereo unspecified)	> 200	126	
Clc1ccc(C=Nc2ccc(Oc3ccc(Cl)cc3)c(Cl)c2)cc1	> 200	33.1	
COC12OCCN(C)C1=CC(=O)C1N=NCC12 (stereo unspecified)			inactive
C=CCOc1cc2c(ccc1=O)-c1c(cc(OC)c(OC)c1OC)CCC2NC(C)=O (stereo unspecified)	> 200	3.63	
O=C1CSC(c2ccc([N+](=O)[O-])cc2)N1c1ccc(-c2ccc(-n3c(-c4ccccc4)nc4ccccc4c3=O)cc2)cc1 (stereo unspecified)	> 200	39.8	
CC(C)=CCc1cc2c(cc1O)OC[C@H]1c3cc4c(cc3O[C@@H]21)OCO4	> 53.7	2.09	
O=C1CC2C(=O)C1C(C(=O)O)C2C(=O)O (stereo unspecified)	> 1170	> 1170	
O=C(NNc1nc(-c2ccccc2)cs1)C(F)(F)F	> 200	44.7	
CN1CCN(CCCCN2c3ccccc3Sc3ccc(N=[N+]=[N-])cc32)CC1	> 200	5.25	
COc1cc(NCC(C#N)C#N)ccc1N=Nc1ccc(Cl)cc1	> 21.4	> 21.4	
O=C(O)C1(C(=O)O)CCC1.[NH2-].[NH2-].[Pt+2]	> 339	7.94	
CC(=O)/C=C(\c1ccccc1)c1c(O)c2ccccc2oc1=O	> 200	141	
N#C/C(=C(/Cc1ccc(F)cc1)NP(=O)(c1ccccc1)c1ccccc1)c1ccc(F)cc1	> 21.4	> 21.4	
NC(=O)C1=CC2C3C=CC2(O)C(=O)OC3O1 (stereo unspecified)	> 1120	1.17	
CC1=C(C(=O)Nc2cc(F)c(F)cc2F)C(c2ccc3c(c2)OCO3)C(C(=O)Nc2cc(F)c(F)cc2F)=C(C)N1	> 61.7	46.8	

Structure (SMILES)	EC50 [µM]	IC50 [µM]	outcome
N#CCc1n[nH]c(Cc2ccccc2)n1	> 200	> 200	
O=c1n(-c2ccccc2)c(=O)n2n1C1CC3c4ccccc4C1C2C31CC1 (stereo unspecified)	> 35.5	> 35.5	
O=C1Cn2c(cc(=O)c3ccccc32)O1	> 67.6	> 67.6	
C1CN(SSN2CCSCC2)CCS1	> 5.37	> 5.37	
N=C([Se])c1ncn(C2OC(CO)C(O)C2O)c1N (stereo unspecified)	> 389	30.2	
[CH3][Sn]([CH3])([S]CCS(=O)(=O)O)[S]CCS(=O)(=O)O	> 200	95.5	
O=C([O-])c1ccc([I+]c2ccccc2)cc1			inactive
CC(=O)c1cc2sc3ccccc3c2[nH]1	> 200	> 200	
COC1OC2C(CO)OC(n3ncc4c3ncn3cnnc43)C2O1 (stereo unspecified)	> 234	> 234	
CC1OC(OC2C(CO)OC(O[C@H]3CC[C@@]4(C)C(=CC[C@H]5[C@@H]6C[C@@H]7O[C@]8(CC[C@@H](C)CN8)[C@@H](C)[C@@H]7[C@@]6(C)CC[C@@H]54)C3)C(O)C2O)C(O)C(O)C1O (stereo partly specified)			inactive
COc1cc(Nc2nc3ccccc3nc2-c2cccs2)cc(OC)c1OC	> 25.1	21.9	
O=C1[C@H](O)[C@@H]2C(O)O[C@H]3[C@@H]2N1C[C@H]3[Si](c1ccccc1)(c1ccccc1)c1ccccc1 (stereo partly specified)	> 200	> 200	
CCC(=O)NC(Nc1ccccc1F)(C(F)(F)F)C(F)(F)F	> 200	> 200	
Cn1c(=O)oc2cc(C(O)CN3CCN(Cc4ccccn4)CC3)c(Cl)cc21 (stereo unspecified)	> 200	195	
C[C@@H]1C[C@@H](O)[C@@]2(O)C13CC(=O)OC(C3)[C@@H](C)[C@@]2(C)CO (stereo partly specified)	> 200	> 200	
CC(C)(C)CC(C)(C)c1cc2c(O)c(c1)Cc1cc(C(C)(C)CC(C)(C)C)cc(c1O)Cc1cc(C(C)(C)CC(C)(C)C)cc(c1O)Cc1cc(C(C)(C)CC(C)(C)C)cc(c1O)Cc1cc(C(C)(C)CC(C)(C)C)cc(c1O)Cc1cc(C(C)(C)CC(C)(C)C)cc(c1O)Cc1cc(C(C)(C)CC(C)(C)C)cc(c1O)Cc1cc(C(C)(C)CC(C)(C)C)cc(c1O)C2	> 2.04	> 2.04	
N#C/C(=C1\SC(N=Nc2ccc(Cl)cc2)C(=O)N1c1ccccc1)c1nc2ccccc2[nH]1 (stereo unspecified)	> 3.8	> 3.8	
O=C1C[C@H](c2ccccc2)C2(C(=O)c3ccccc3C2=O)[C@H](c2ccccc2)C1	> 102	> 102	
Cc1ccc(-c2cc(O)c3nc4ccccc4n3c2)cc1	> 200	> 200	
O=C(O)CN1C(=O)c2ccc(NC(=O)C(=O)O)cc2S1(=O)=O	> 200	> 200	
CCN(CC)CCN(CC)C(=O)COc1cc2c(O)c3c(O)c(C)c4c(c13)C(=O)C(C)(O/C=C/C(OC)C(C)C(OC(C)=O)C(C)C(O)C(C)C(O)C(C)/C=C/C=C(\C)C(=O)N2)O4 (stereo unspecified)	> 200	35.5	
COc1ccc(C[C@H](N)C(=O)NC2C(CO)OC(n3cnc4c(N(C)C)ncnc43)C2O)cc1 (stereo partly specified)	> 200	0.117	
CCS1=C(C(C)=O)C(=O)O[C@H](C)C1 (stereo partly specified)	> 1230	> 1230	
CCCCCC(/C=C/c1ncccc1OCCCCCC(=O)O)=N\NC1=NCCN1	> 44.7	> 44.7	
